Measurements reported in patent US8361968B2 (Takeda Pharmaceutical Company Limited, priority 2002, dated 2013).
Read-outs that look alike come from different tables or passages of the source. Square brackets hold non-standard residues; d marks the D form. Peptide text beside a SMILES is read from it. * marks the point of attachment. Propanoyl(3-(3-pyridyl)) = O=C(CCc1cccnc1)*; Arg(Me) = CNC(=N)NCCC[C@H](N)C(=O)O; d4Pal = N[C@H](Cc1ccncc1)C(=O)O; azaGly = NNC(=O)O

How the values were obtained:
[1] = system: human colonic carcinoma-derived cell line SW620; test: Tumor growth inhibition activity in tumor-bearing mice with SW620; type: in vivo; conditions: for tumor growth inhibition (tumor size) compared to the vehicle group: SW620 tumor-bearing BALB/cAnN-nu mice, s.c. osmotic pump
Description: The abscissa denotes the number of days after injection. The bar on the abscissa designates a dosing period. The ordinate denotes a tumor size (mm^3).
Evaluation of Tumor Growth Inhibition Activity
On the following day, human colonic carcinoma-derived cell line SW620 (ATCC) was dissolved in 20 mM phosphate buffered saline (pH 7.2)(PBS) containing 200 μL of 0.15M NaCl at a density of 2×10^6 cells. The resulting solution was subcutaneously injected into the left flank of the mice above. The day when the cells were injected was made Day 0. Tumor was measured with an electronic caliper every other or 2 other days during Days 4 to 13 from the cell administration, and tumor size was calculated by the following equation: […].

[2] = system: rats; test: Effect of metastin derivatives on blood glucose level and blood glucagon level; type: in vivo; conditions: for blood glucose level: i.v. 80 nmol/kg (FIG. 10); for blood glucagon level: i.v. 80 nmol/kg (FIG. 11)
From the text: The value indicates (mean±SE) (n=5). The symbol * designates that the P-value is 0.05 or less, when compared to the saline group and the symbol ** designates that the P-value is 0.01 or less, when compared to the saline group.
In the figure, the symbols, open circle, closed circle and closed triangledesignate the blood glucagon level in the saline group and the group receiving 80 nmol/kg KiSS1-305 (Compound No. 305), the group receiving 80 nmol/kg KiSS1-322 (Compound No. 322), respectively. The value indicates (mean±SE) (n=5). The symbol * designates that the P-value is 0.05 or less, when compared to the saline group.
An operation was performed in free moving mature Wistar male rats (weighing […] at the time of operation) in a manner similar to TEST EXAMPLE 1 to collect blood. After the operation, the animal was maintained overnight. […] To prevent blood clotting, 3 μl of 300 KIU/ml aprotinin solution containing 3 mg/ml EDTA had previously been filled in the syringe. […] Blood was collected from the jugular vein by 300 μl each 2, 5, 15, 30, 45 and 60 minutes starting from the intravenous injection. The collected blood was centrifuged (13,000 rpm, 5 minutes) with a high speed refrigerated centrifuge (MR-150, Tomy Seiko Co., Ltd.) to recover the supernatant (plasma). Glucose level in blood was measured using Fuji Drychem 3500 (FUJI FILM) and glucagon level in blood was measured using a glucagon kit “Daiichi” (Daiichi Radioisotope Laboratories Ltd.), as in TEST EXAMPLE 1 or 2.

[3] = system: hOT7T175-expressed CHO cells; type: cell-based
Description: Assay for Cell Growth Inhibition Activity in hOT7T175-Expressed Cho Cells hOT7T175-Expressed CHO cells (hereinafter hOT7T175) were cultured in DMEM supplemented with 10% dialyzed FBS (hereinafter 10% dFBS/DMEM), which was used for the following assay. The hOT7T175 was suspended in 10% dFBS/DMEM at 10,000 cells/ml. The cells were plated on a 96 well plate at 100 μL each/well (1,000 cells/well), followed by culturing overnight at 37° C. in a 5% CO2 incubator. On the following day, the medium was removed and 90 μL of 10% dFBS/DMEM supplemented with 0.5% BSA (hereinafter, 0.5% BSA/10% dFBS/DMEM) was added. […] After 10 μL of Cell Counting Kit-8 solution (Dojin Chemical Laboratory) was added to each well, incubation was performed at 37° C. in a 5% CO2 incubator for 4 hours and absorbance was measured at 450 nm.

[4] = in vitro; conditions: female, Balb/c, mouse, serum
Description: Blood was drawn from Balb/c mice (female) of 8 weeks old, settled at 37° C. for 30 minutes and centrifuged at 13000 rpm for 10 minutes to give the serum as the supernatant. The serum thus obtained was frozen-stored at −80° C.
The stability test was performed by addition of 5 nmol of Compound (5 μL of aqueous solution) to 45 μL of serum and then settlement of the mixture at 37° C. The settlement was made at 3 points of time, including 2, 10 and 30 minutes. The sample after the settlement was boiled for 3 minutes and cooled on an ice bath. After 200 μL of acetonitrile/water (3/1) was added to the sample, the mixture was ultrasonicated for 5 minutes and then centrifuged at 5000 rpm for 1 minute. After 150 μL of the supernatant was diluted with 250 μL of distilled water, insoluble matters were removed by filtration through a filter having a pore size of 0.45 μm and 200 μL of the filtrate was applied on HPLC (220 nm) to determine the peak area of Compound. A ratio of the peak area to the area when Compound was treated for 0 minute under the same conditions was calculated as a mean value in 4 respective runs to determine the residual ratio. Next, by taking the calculated residual ratio on the ordinate and the time on the abscissa, a graph was prepared and approximated by an exponential function.
The preparative HPLC used was the LC-VP series manufactured by Shimadzu Corporation and Wakosil-II 5C18 HG (4.6 mm×100 mm) manufactured by Wako Pure Chemical Industries, Ltd. was used as the column. Eluant A (0.1% TFA-containing water) and eluant B (0.1% TFA-containing acetonitrile) were used as eluants. Analysis was performed by linear density gradient elution (25 minutes) at a flow rate of 1.0 ml/min. using eluants A/B: 100/0-0/50.

## CNC(=N)NCCC[C@H](NC(=O)[C@H](CC(C)C)NC(=O)NNC(=O)[C@H](Cc1ccccc1)NC(=O)[C@H](CO)NC(=O)[C@H](CC(N)=O)NC(=O)[C@@H](Cc1ccncc1)NC(=O)[C@H](N)Cc1ccc(O)cc1)C(=O)N[C@@H](Cc1ccccc1)C(N)=O [Compound No. 305, D-Tyr-D-Pya(4)-Asn-Ser-Phe-AzaGly-Leu-Arg(Me)-Phe-NH2] (H-[dY][d4Pal]NSF[azaGly]L[Arg(Me)]F-NH2)
[1]; 2.4 nmol/day/mouse×14 days
  tumor growth inhibition (tumor size) compared to the vehicle group: significant tumor growth inhibition activity from Days 5 to 11
[1]; 24 nmol/day/mouse×14 days
  tumor growth inhibition (tumor size) compared to the vehicle group: significant effect of tumor growth inhibition from Days 5 to 9 and on Day 11
[1]; SW620 tumor-bearing mice, in vivo
  effect of tumor growth inhibition relative to Metastin: 10 times
[2]
  blood glucose level: increase in the blood glucose level
  blood glucagon level: increase in the blood glucagon level
[3]; hOT7T175-expressed CHO cells, 3 days culture, Cell Counting Kit-8, read-out: IC50 (M), cell growth inhibition activity
  IC50: 8.94e-09 M
[4]
  half-life at 100 µM: 1.11 h

## CNC(=N)NCCC[C@H](NC(=O)[C@H](CC(C)C)NC(=O)NNC(=O)[C@H](Cc1ccccc1)NC(=O)[C@H](CO)NC(=O)[C@H](CC(N)=O)NC(=O)CCc1cccnc1)C(=O)N[C@@H](Cc1ccccc1)C(N)=O [Compound No. 322, 3-Pyridylpropionyl-Asn-Ser-Phe-AzaGly-Leu-Arg(Me)-Phe-NH2] ({Propanoyl(3-(3-pyridyl))}-NSF[azaGly]L[Arg(Me)]F-NH2)
[1]; 24 nmol/day/mouse×14 days, Day 11
  tumor growth inhibition compared with the Metastin group: significant tumor growth inhibition activity even when compared with the Metastin group
[1]; 2.4 nmol/day/mouse×14 days
  tumor growth inhibition (tumor size) compared to the vehicle group: significant tumor growth inhibition activity in a 1/10 dose (2.4 nmol/day/mouse×14 days) of Metastin from Days 6 to 8
[1]; 24 nmol/day/mouse×14 days
  tumor growth inhibition (tumor size) compared to the vehicle group: significant tumor growth inhibition activity from Days 6 to 11
[2]
  blood glucose level: increase in the blood glucose level
  blood glucagon level: increase in the blood glucagon level
[3]
  IC50: 7.19e-08 M
[4]
  half-life at 100 µM: 1.57 h
